{"source": "paper PMC8219027", "about": "“A small-molecule inhibitor of the BRCA2-RAD51 interaction modulates RAD51 assembly and potentiates DNA damage-induced cell death” (Cell Chemical Biology, 2021)", "key": {"γH2AX foci in A549 cells": {"test_system": "γH2AX foci in A549 cells", "assay": "γH2AX foci, Cellomics ArrayScan high-content microscopy", "assay_type": "cell-based, human", "settings": "50 μM, 24 h after exposure to IR", "excerpt": "We tested this prediction by monitoring RAD51 foci formation after the exposure of A549 non-small cell lung carcinoma (NSCLC) cells to ionizing radiation (IR), using a robust cell-based assay based on high-content microscopy with the Cellomics ArrayScan V^TI, to objectively enumerate RAD51 foci ([Jeyasekharan et al., 2013]). IR-induced DNA breakage was monitored in the same experiment by enumerating foci containing γH2AX, a phosphorylated form of histone H2AX that is formed at DNA breaks ([Rogakou et al., 1998]).\nFor detection of γH2AX foci in A549 cells, 10,000 cells/well (1x10^5 cells/ml) were seeded in 100 μl and left to grow overnight before treatment with compound. Cells were subsequently exposed to compounds and either 3 Gy ionising radiation or mock treated (left on the bench at room temperature). Staining protocol was identical as for RAD51 foci but anti-phospho γH2AX primary mouse monoclonal antibody was used (Millipore, cat#05-636) at 1:2000 dilution. Image analysis was done using Cellomics software."}, "[1]": {"test_system": "HCT116 cells (BRCA2 wild-type)", "assay": "SRB growth inhibition assay, combination of CAM833 and PARP1 inhibitor AZD2461", "assay_type": "cell-based, human", "settings": "96 h", "method": "Adherent cell lines (HCT116 and A549 cells) were seeded into flat-bottomed tissue culture 96-well plates in a volume of 150 μL of growth medium. HCT116 cells were seeded at 750 cells per well and A549 cells were seeded at 1000 cells per well. After 24 hours, compounds dissolved in DMSO were diluted in growth medium and were added to cells such that the final DMSO concentration was 1% (v/v) and the final volume in the well was 200 μL. Cells were then incubated in the presence of compound for 96 hours before fixation.\nMedium was removed from cells and 100 μL of cold 1% (v/v) trichloroacetic acid was added for 30 minutes at 4 degrees. The plates were washed three times in tap water and left to dry at room temperature. The fixed cells were stained in a 0.057% sulphorodamine B/1% acetic acid solution (w/v) and incubated at room temperature with agitation for 30 minutes after which the dye was removed and the plates washed in 1% (v/v) acetic acid and left to dry. The dye was then solubilised in 10 mM Tris solution (pH8) and incubated for 30 minutes under agitation. The plates were then read on a PHERAstar plus plate reader (BMG Labtech) using the fluorescence intensity module (540-590 nm). Growth inhibition was calculated relative to DMSO controls and GI50 values were calculated using Graphpad Prism.\nFor the PARP inhibitor experiments, the SRB method was used as described above to measure growth inhibition with the exception that cells were seeded into 150 μl medium and then a combination of either 25 μl of CAM833, AZD2461 (SelleckChem; #S7029) or DMSO was added to give a total volume of 200 ul in the well."}, "BT549": {"test_system": "BT549", "assay": "cells", "settings": "Homo sapiens, BT-549, read-out: Absolute EC50, growth inhibition"}, "RT112/84": {"test_system": "RT112/84", "assay": "cells", "settings": "Homo sapiens, RT112/84, read-out: Absolute EC50, growth inhibition"}, "CYP450 2D6": {"target": "T1, CYP450 2D6 (Homo sapiens, UniProt P10635)", "T1 construct": "Cyprotex (contract data)", "assay": "CYP450 inhibition", "assay_type": "in vitro ADME"}, "A375": {"test_system": "A375", "assay": "cells", "settings": "Homo sapiens, A-375, read-out: Absolute EC50, growth inhibition"}, "NCI-H209": {"test_system": "NCI-H209", "assay": "cells", "settings": "Homo sapiens, NCI-H209, read-out: Absolute EC50, growth inhibition"}, "Raji": {"test_system": "Raji", "assay": "cells", "settings": "Homo sapiens, read-out: Absolute EC50, growth inhibition"}, "Mouse oral screen": {"assay": "Mouse oral screen", "settings": "male, CD-1, mouse, in vivo, 50 mg/kg"}, "Caki1": {"test_system": "Caki1", "assay": "cells", "settings": "Homo sapiens, CAKI-1, read-out: Absolute EC50, growth inhibition"}, "A549": {"test_system": "A549", "assay": "cells", "settings": "Homo sapiens, A549, read-out: Absolute EC50, growth inhibition"}, "Calu3": {"test_system": "Calu3", "assay": "cells", "settings": "Homo sapiens, Calu-3, read-out: Absolute EC50, growth inhibition"}, "SW756": {"test_system": "SW756", "assay": "cells", "settings": "Homo sapiens, SW756, read-out: Absolute EC50, growth inhibition"}, "Mia-pa-ca2": {"test_system": "Mia-pa-ca2", "assay": "cells", "settings": "Homo sapiens, MIA PaCa-2, read-out: Absolute EC50, growth inhibition"}, "SK-OV-3": {"test_system": "SK-OV-3", "assay": "cells", "settings": "Homo sapiens, SK-OV-3, read-out: Absolute EC50, growth inhibition"}, "5637": {"test_system": "5637", "assay": "cells", "settings": "Homo sapiens, read-out: Absolute EC50, growth inhibition"}, "HepG2": {"test_system": "HepG2", "assay": "cells", "settings": "Homo sapiens, HepG2, read-out: Absolute EC50, growth inhibition"}, "U20S": {"test_system": "U20S", "assay": "cells", "settings": "Homo sapiens, read-out: Absolute EC50, growth inhibition"}, "HT1367": {"test_system": "HT1367", "assay": "cells", "settings": "Homo sapiens, read-out: Absolute EC50, growth inhibition"}, "SCaBER": {"test_system": "SCaBER", "assay": "cells", "settings": "Homo sapiens, read-out: Absolute EC50, growth inhibition"}, "HL-60": {"test_system": "HL-60", "assay": "cells", "settings": "Homo sapiens, HL-60, read-out: Absolute EC50, growth inhibition"}, "U118MG": {"test_system": "U118MG", "assay": "cells", "settings": "Homo sapiens, U-118-MG, read-out: Absolute EC50, growth inhibition"}, "Caco-2": {"test_system": "Caco-2", "assay": "Caco-2 permeability", "assay_type": "in vitro ADME", "settings": "summary of Table S1"}, "Caco-2 permeability": {"assay": "Caco-2 permeability", "assay_type": "in vitro ADME", "settings": "human, Caco-2"}, "BT20": {"test_system": "BT20", "assay": "cells", "settings": "Homo sapiens, BT-20, read-out: Absolute EC50, growth inhibition"}}, "data": [{"smiles": "COc1ccc([C@H](C)NC(=O)[C@@H]2C[C@@H](O)CN2C(=O)CNC(=O)c2ccc3cc(F)ccc3n2)c(Cl)c1", "note": "[CAM833, N-(2-((2S,4R)-2-(((S)-1-(2-chloro-4-methoxyphenyl)ethyl)carbamoyl)-4-hydroxypyrrolidin-1-yl)-2-oxoethyl)-6-fluoroquinoline-2-carboxamide]", "values": [{"measurement": "increase of γH2AX foci formation compared with control-treated cells", "setting": "γH2AX foci in A549 cells", "result": "approximately 4 fold"}, {"measurement": "growth inhibition by combination with AZD2461 (in words)", "setting": "[1]; HCT116, BRCA2 wild-type", "result": "potentiated the growth-suppressive effects of PARP1 inhibition"}, {"measurement": "growth inhibition by CAM833 alone (in words)", "setting": "[1]; HCT116, fixed dose 10 μM or 20 μM", "result": "little effect"}, {"measurement": "EC50", "setting": "BT549", "result": 73.8, "unit": "µM"}, {"measurement": "EC50", "setting": "RT112/84", "result": 70.6, "unit": "µM"}, {"measurement": "IC50", "setting": "CYP450 2D6", "result": "> 25", "unit": "µM"}, {"measurement": "EC50", "setting": "A375", "result": 72, "unit": "µM"}, {"measurement": "EC50", "setting": "NCI-H209", "result": 69.3, "unit": "µM"}, {"measurement": "EC50", "setting": "Raji", "result": 95.6, "unit": "µM"}, {"measurement": "Cmax", "setting": "Mouse oral screen", "result": 8320, "unit": "ng/mL"}, {"measurement": "bioavailability", "setting": "Mouse oral screen", "result": 44, "unit": "%"}, {"measurement": "EC50", "setting": "Caki1", "result": 73, "unit": "µM"}, {"measurement": "EC50", "setting": "A549", "result": 39, "unit": "µM"}, {"measurement": "EC50", "setting": "Calu3", "result": 83.3, "unit": "µM"}, {"measurement": "EC50", "setting": "SW756", "result": 124, "unit": "µM"}, {"measurement": "EC50", "setting": "Mia-pa-ca2", "result": 68.6, "unit": "µM"}, {"measurement": "solubility", "setting": "Aqueous solubility; pH 7.4 buffer, pH 7.4, aqueous buffer, thermodynamic from solid", "result": 7.75, "unit": "µg/mL"}, {"measurement": "solubility (in words)", "setting": "Aqueous solubility; summary of Table S1", "result": "moderate"}, {"measurement": "EC50", "setting": "SK-OV-3", "result": 105, "unit": "µM"}, {"measurement": "EC50", "setting": "5637", "result": 84.5, "unit": "µM"}, {"measurement": "EC50", "setting": "HepG2", "result": 68.1, "unit": "µM"}, {"measurement": "EC50", "setting": "U20S", "result": 40.5, "unit": "µM"}, {"measurement": "EC50", "setting": "HT1367", "result": 104, "unit": "µM"}, {"measurement": "EC50", "setting": "SCaBER", "result": 47, "unit": "µM"}, {"measurement": "EC50", "setting": "HL-60", "result": 87.7, "unit": "µM"}, {"measurement": "EC50", "setting": "U118MG", "result": 90.3, "unit": "µM"}, {"measurement": "permeability (in words)", "setting": "Caco-2", "result": "moderate"}, {"measurement": "efflux ratio", "setting": "Caco-2 permeability", "result": 195}, {"measurement": "Papp A→B", "setting": "Caco-2 permeability; A to B, read-out: Caco-2 permeability AtoB Papp", "result": 0.23, "unit": "×10⁻⁶ cm/s"}, {"measurement": "EC50", "setting": "BT20", "result": 61.9, "unit": "µM"}]}]}
